# Assay results from ChEMBL document CHEMBL1131349, “4-[(1H-imidazol-4-yl) methyl] benzamidines and benzylamidines: novel antagonists of the histamine H3 receptor” (Bioorg Med Chem Lett, 1998).
# Legend:
# [1] = target: Histamine H3 receptor (Cavia porcellus, UniProt Q9JI35); assay: Inhibition of N-alpha-methylhistamine binding to histamine H3 receptor of guinea pig brain membranes
# [2] = target: Histamine H3 receptor (Cavia porcellus) (UniProt Q9JI35); assay: Compound was tested for inhibition of N-alpha-methylhistamine binding to histamine H3 receptor in guinea pig brain membranes; assay type: cell membranes; conditions: Membrane, concentration not given here
# [3] = system: Cavia porcellus; assay: In vivo antihistaminic (Histamine H3) activity was determined in guinea pig; assay type: functional
# [4] = system: Cavia porcellus; assay: Percent inhibition of histamine H3 mediated antihistaminic activity in guinea pig was determined in vivo; assay type: functional
# Histamine H3 receptor, sequence (Q9JI35 whole entry): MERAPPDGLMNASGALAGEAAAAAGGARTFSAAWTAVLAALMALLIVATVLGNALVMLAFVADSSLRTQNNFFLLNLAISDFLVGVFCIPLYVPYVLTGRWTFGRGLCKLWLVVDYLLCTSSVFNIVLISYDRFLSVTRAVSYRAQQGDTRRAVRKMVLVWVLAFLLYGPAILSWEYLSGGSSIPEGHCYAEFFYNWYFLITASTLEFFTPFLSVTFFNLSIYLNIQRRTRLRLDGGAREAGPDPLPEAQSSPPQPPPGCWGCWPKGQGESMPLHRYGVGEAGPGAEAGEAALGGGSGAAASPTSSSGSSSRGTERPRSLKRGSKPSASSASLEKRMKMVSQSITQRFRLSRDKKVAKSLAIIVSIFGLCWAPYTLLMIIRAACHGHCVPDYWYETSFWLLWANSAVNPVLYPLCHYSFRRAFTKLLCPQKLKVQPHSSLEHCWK
# Histamine H3 receptor (Cavia porcellus), sequence (Q9JI35 whole entry): as above
SMILES,Ki [1],other results
N=C(N)CCCc1c[nH]cn1,1.2 nM,–
N=C(N)c1ccc(-c2c[nH]cn2)cc1,–,inhibition [2]: 49%
N=C(NCc1ccc(Cl)cc1)c1ccc(Cc2c[nH]cn2)cc1,16 nM,ED50 [3]: 0.3 mg/kg
N=C(N)c1ccc(CCc2cnc[nH]2)cc1,165 nM,–
N=C(N)c1cccc(-c2c[nH]cn2)c1,350 nM,–
N=C(CCc1ccc(Cc2cnc[nH]2)cc1)NCc1ccc(Cl)cc1,175 nM,–
N=C(N)c1ccc(Cc2c[nH]cn2)cc1,–,Inhibition [4]: 33%
COc1ccc(C/N=C(\N)c2ccc(Cc3c[nH]cn3)cc2)cc1,513 nM,–
S=C(NC1CCCCC1)N1CCC(c2cnc[nH]2)CC1 [THIOPERAMIDE],7.3 nM,ED50 [3]: 0.4 mg/kg
N=C(NCc1ccncc1)c1ccc(Cc2c[nH]cn2)cc1,–,inhibition [2]: 44%
N=C(Cc1ccc(Cc2c[nH]cn2)cc1)NCc1ccc(Cl)cc1,–,ED50 [3]: 0.3 mg/kg
